Entries after “also recorded” stand apart in the source; their conditions may differ. Read-outs that look alike come from different tables or passages of the source.
Assays:
[1] = system: Arabidopsis hypocotyl explants; details: alone or in combination of kinetin and TSA; cited from earlier work
[2] = system: Arabidopsis leaf explants; details: treatment with TSA; cited from earlier work
[3] = system: cells derived from male gametophytes of diverse plant species; details: TSA added to the culture medium; cited from earlier work
[4] = system: friable calli from sugar beet leaf explants; experiment: Shoot regeneration from friable calli induced in the presence of TSA; type: cell-based, Beta vulgaris
Procedure: 2. Technical Description of the Shoot Regeneration Protocol 1. The friable calli of step 4 were harvested in medium containing MS salts, 30 g/l sucrose, 1 mg/l GA3 and 1 mg/l TDZ, and transferred to separate dishes. 2. The dishes were incubated under the light (16 h) at 24° C. for 10 days. 3. Developing shoots were counted under a stereomicroscope, in order to estimate the regeneration capacity (number of shoots per initial leaf explant).

[5] = system: leaf explants of sugar beet (Beta vulgaris); type: cell-based
Procedure: 1. Technical Description of the Sugar Beet Callus Induction Protocol
This method is based on the publication by Kischenko et al., 2005 Cell Biology International.
1. Micropropagated shoots of the genotype S706 were used as starting material. Shoots were multiplied in MS salts supplemented with 30 g/l sucrose and 0.25 mg/l benzyladenine (BAP).
2. To induce friable callus, leaf explants were isolated from micropropagated shoots and incubated in medium containing MS salts including 15 g/l sucrose and 2 mg/l BAP as a control and in the same medium supplemented with 0.01 μM TSA (B1), 0.1 μM TSA (B2), 0.5 μM TSA (B3), 1.0 μM TSA (B4), and 5.0 μM TSA (B5), at 28° C. in the dark for 7 weeks.
3. Development of callus from leaf explants was monitored during the incubation in the callus induction medium at 4, 5, 6 and 7 weeks.
4. Leaf explants producing friable calli were scored in order to calculate the callus induction frequency (percentage of leaf explants that produced friable calli).

c1coc(CNc2ncnc3[nH]cnc23)c1 [Kinetin]
induction of callus growth [1]: did not induce callus growth

CC(/C=C/C(=O)NO)=C\[C@@H](C)C(=O)c1ccc(N(C)C)cc1 [TSA, trichostatin A]
induction of callus growth [1]: did not induce callus growth
callus formation [2]: defective callus formation
proportion of cells undergoing embryogenic growth [3]: large increase
average number of shoots per explant ([4]; genotype 1, callus induced with 0.01 μM TSA, control 4.7): 7.7
average number of shoots per explant ([4]; genotype 2, callus induced with 0.01 μM TSA, control 2.4): 4.6
regeneration of shoots from produced calli ([4]; genotype 3 (high level of recalcitrance), callus induced with 0.01 μM TSA): able to regenerate shoots only when the calli were produced in medium containing TSA; also recorded: only possible if the callus has been induced in the presence of TSA
number of regenerated shoots per explant ([4]; genotype S706, FIGS. 3C and 4C, vs control): increased
number of leaf explants with developing calli ([5]; after 28 days, without TSA not reached even after 49 days): high number
genotype-dependent recalcitrance to callus formation ([5]; first initial tests, TSA added): could be reduced
average callus induction frequency ([5]; genotype 1, 0.01 μM TSA, control without TSA 66.3%): 82%
callus induction frequency ([5]; genotype 2, 0.01 μM TSA vs control): no significant increase
callus induction frequency ([5]; genotype 3 (high level of recalcitrance), 0.01 μM TSA): very low
speed of callus formation ([5]; genotype S706, FIG. 5, vs medium without TSA): accelerates
callus amount per leaf explant ([5]; genotype S706, FIGS. 3B and 4B, vs medium without TSA): increases
callus induction frequency (percentage of leaf explants that produced friable calli) ([5]; genotype S706, TSA 0.01 μM to 1.0 μM in callus induction medium, vs medium without TSA): increased

Source: patent publication US11700805B2, “Regeneration of plants in the presence of histone deacetylase inhibitors” (KWS SAAT SE & CO. KGaA, priority 2017, dated 2023)
